# Entries after “also recorded” stand apart in the source; their conditions may differ.
# Legend:
# [1] = molecular target: T1, mouse CB2 receptors (Mus musculus, UniProt P47936); assay: Arrestin recruitment (PathHunter CHO K1CNR2, enzyme complementation); assay type: cell-based
# T1 construct: expressed in transfected cells
# [2] = molecular target: T1, mouse CB2 receptors; assay: On-cell western for receptor internalization, HEK mCB2; assay type: cell-based
# [3] = molecular target: T1, mouse CB2 receptors; assay: Forskolin-stimulated cAMP accumulation (cyclase), HEK mCB2; assay type: cell-based
# [4] = molecular target: T1, mouse CB2 receptors; assay: Phosphorylated ERK1/2 detection, HEK mCB2; assay type: cell-based
# [5] = molecular target: T2, human CB2 (Homo sapiens, UniProt P34972); assay: On-cell western for receptor internalization, HEK hCB2; assay type: cell-based; parameters: expressed in transfected cells; conditions: read-out: Internalization Emax
# [6] = molecular target: T2, human CB2; assay: Forskolin-stimulated cAMP accumulation (cyclase), HEK hCB2; assay type: cell-based; parameters: expressed in transfected cells; time of inhibition of forskolin-stimulated cAMP accumulation: dose or concentration left out as unconfirmed
# [7] = molecular target: T2, human CB2; assay: Phosphorylated ERK1/2 detection, HEK hCB2; assay type: cell-based; parameters: expressed in transfected cells
# [8] = system: morphine analgesia and antinociceptive tolerance; conditions: rats, with morphine; cited from earlier work
# [9] = molecular target: T1, mouse CB2 receptors; assay: Myo-inositol phosphate-1 (IP1) accumulation, HEK mCB2; assay type: cell-based; conditions: via mouse CB2
# T1 sequence (P47936 whole entry): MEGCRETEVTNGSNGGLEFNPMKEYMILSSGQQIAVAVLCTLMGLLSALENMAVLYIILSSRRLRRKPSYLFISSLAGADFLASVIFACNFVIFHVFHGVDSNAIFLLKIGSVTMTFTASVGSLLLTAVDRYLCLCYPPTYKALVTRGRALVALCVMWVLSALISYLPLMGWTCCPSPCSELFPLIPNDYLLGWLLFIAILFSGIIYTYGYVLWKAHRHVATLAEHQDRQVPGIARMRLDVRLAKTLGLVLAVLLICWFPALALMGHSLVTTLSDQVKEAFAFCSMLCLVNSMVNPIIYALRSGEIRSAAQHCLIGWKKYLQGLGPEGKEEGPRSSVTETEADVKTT
# T2 sequence (P34972 whole entry): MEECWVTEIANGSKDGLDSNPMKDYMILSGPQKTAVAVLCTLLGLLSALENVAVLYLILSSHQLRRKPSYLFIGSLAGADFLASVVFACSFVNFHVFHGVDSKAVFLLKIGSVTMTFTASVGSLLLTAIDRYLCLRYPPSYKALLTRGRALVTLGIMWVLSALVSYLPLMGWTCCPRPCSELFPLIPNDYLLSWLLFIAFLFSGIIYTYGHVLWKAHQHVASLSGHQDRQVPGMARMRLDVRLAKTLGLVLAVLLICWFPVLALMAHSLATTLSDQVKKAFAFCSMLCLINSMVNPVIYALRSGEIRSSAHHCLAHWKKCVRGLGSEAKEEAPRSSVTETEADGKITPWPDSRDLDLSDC
smiles,measurement,setting,value
"CCCCCCC(C)(C)c1ccc([C@@H]2C[C@H](O)CC[C@H]2CCCO)c(O)c1 (relative stereo) [CP55940, reference compound]",EC50,[1],2.3 nM
same,arrestin recruitment,"[1]; CHO cells expressing mCB2, 90-minute drug incubation",recruited arrestin in a concentration-dependent manner
same,Emax,[1]; read-out: Arrestin Emax,125%
same,EC50,[2],7.4 nM
same,receptor internalization,[2]; HEK mCB2,concentration dependently internalized the mCB2
same,Emax,[2]; read-out: Internalization Emax,49.1%
same,EC50,[3],6.6 nM
same,forskolin-induced cAMP levels,"[3]; HEK mCB2, 1 μM final concentration, 5 minutes",attenuated forskolin-induced cAMP levels; also recorded: stronger inhibitory effect than AM1710
same,cAMP levels in the absence of forskolin,"[3]; HEK mCB2, compound alone",alone did not change cAMP levels
same,forskolin-stimulated cAMP after PTX treatment,"[3]; mCB2, 1 μM, PTX 300 ng/ml overnight",modestly increased cAMP accumulation at 5 minutes; also recorded: abolished the decrease in forskolin-stimulated cAMP
same,time of efficacious inhibition of forskolin-stimulated adenylyl cyclase,"[3]; mCB2, 1 μM, time course",~5 min
same,"inhibition of forskolin-stimulated cAMP accumulation, concentration response","[3]; mCB2, 5 minutes",potently and efficaciously inhibited cAMP accumulation
same,Emax,[3]; read-out: Cyclase Emax,52.8%
same,ERK1/2 phosphorylation time course,"[4]; mCB2, 1 μM","increased phosphorylated ERK1/2 at 5-, 10-, 30-, and 40-minute time points"
same,ERK1/2 phosphorylation after PTX treatment,"[4]; mCB2, 1 μM, PTX","abolished the CP55940-mediated phosphorylation of ERK1/2 at the 5-minute time point, but it was retained at the 40-minute time point"
same,"ERK1/2 phosphorylation, concentration response","[4]; mCB2, 5 minutes",concentration dependency increased ERK1/2 phosphorylation
same,"ERK1/2 phosphorylation, concentration response","[4]; mCB2, 20 minutes",decreased ERK1/2 phosphorylation
same,effect on ERK1/2 phosphorylation in presence of SR144528,"[4]; mCB2, 20 minutes, SR144528 1 μM",blocked
same,EC50,"[4]; pERK1/2 EC50, mouse CB2, 05 mins incubation",10.5 nM
same,EC50,"[4]; pERK1/2 EC50, mouse CB2, 20 mins incubation",1.5 nM
same,Emax,"[4]; read-out: pERK1/2 Emax, mouse CB2, 05 mins incubation",136%
same,Emax,"[4]; read-out: pERK1/2 Emax, mouse CB2, 20 mins incubation",20.3%
same,Emax,[5],33.9%
same,"cAMP levels, compound alone (no forskolin)",[6]; HEK hCB2,alone did not change the cAMP levels
same,duration of decrease in cAMP,[6]; HEK hCB2,up to 10 minutes
same,"inhibition of forskolin-induced cAMP levels, time course","[6]; HEK hCB2, 1 μM final concentration",produced early inhibition of forskolin-induced cAMP levels at 5 minutes
same,inhibition of forskolin-stimulated cAMP after PTX pretreatment,"[6]; HEK hCB2, 1 μM final concentration, PTX",blocked the inhibition of forskolin-stimulated cAMP
same,inhibition of forskolin-stimulated cAMP accumulation,"[6]; hCB2, 5 minutes of treatment",potent and efficacious
same,time of inhibition of forskolin-stimulated cAMP accumulation,"[6]; hCB2, time course",5 min
same,inhibition of cAMP accumulation after PTX pretreatment,"[6]; hCB2, time course, PTX",abolished this effect
same,Emax,[6]; read-out: Cyclase Emax,59.6%
same,ERK1/2 phosphorylation time course,"[7]; hCB2, 1 pM","efficaciously increased ERK1/2 phosphorylation after 5 minutes, 10 minutes, and 30 minutes"
same,ERK1/2 phosphorylation after PTX treatment,"[7]; hCB2, 1 pM, PTX",retained
same,stimulated phosphorylation of ERK1/2 in presence of SR144528,"[7]; hCB2, SR144528 (1 pM)",completely blocked
same,Emax,"[7]; read-out: pERK1/2 Emax, human CB2, 05 mins incubation",95.7%
same,Emax,"[7]; read-out: pERK1/2 Emax, human CB2, 30 mins incubation",49.4%
CCCCCOc1c(OC)ccc2cc(C(=O)NCc3ccc4c(c3)OCO4)c(=O)[nH]c12 [JTE907],morphine analgesia and morphine antinociceptive tolerance,[8],decreased morphine analgesia and attenuated morphine antinociceptive tolerance
"Cc1c(C(=O)c2cccc3ccccc23)c2cccc3c2n1[C@H](CN1CCOCC1)CO3 [WIN55212-2, reference compound]",IP1 accumulation,[9],increased IP1 accumulation
